Experimental data: patent publication US20210177814A1, “USE OF GUANABENZ OR DERIVATES THEREOF FOR THE TREATMENT OF TYPE I IFN-DEPENDENT PATHOLOGIES” (INSERM (Institut National de la Santé et de la Recherche …, priority 2018, published 2021)
“Also recorded” adds a separate entry of the source.

Target: T1, TLR9 (Mus musculus, UniProt Q9EQU3)
T1 construct: from tissue; host or cells: whole animal: C57BL/6, FVB and FVB GADD34ΔC/ΔC mice
T1 sequence (Q9EQU3 26-1032): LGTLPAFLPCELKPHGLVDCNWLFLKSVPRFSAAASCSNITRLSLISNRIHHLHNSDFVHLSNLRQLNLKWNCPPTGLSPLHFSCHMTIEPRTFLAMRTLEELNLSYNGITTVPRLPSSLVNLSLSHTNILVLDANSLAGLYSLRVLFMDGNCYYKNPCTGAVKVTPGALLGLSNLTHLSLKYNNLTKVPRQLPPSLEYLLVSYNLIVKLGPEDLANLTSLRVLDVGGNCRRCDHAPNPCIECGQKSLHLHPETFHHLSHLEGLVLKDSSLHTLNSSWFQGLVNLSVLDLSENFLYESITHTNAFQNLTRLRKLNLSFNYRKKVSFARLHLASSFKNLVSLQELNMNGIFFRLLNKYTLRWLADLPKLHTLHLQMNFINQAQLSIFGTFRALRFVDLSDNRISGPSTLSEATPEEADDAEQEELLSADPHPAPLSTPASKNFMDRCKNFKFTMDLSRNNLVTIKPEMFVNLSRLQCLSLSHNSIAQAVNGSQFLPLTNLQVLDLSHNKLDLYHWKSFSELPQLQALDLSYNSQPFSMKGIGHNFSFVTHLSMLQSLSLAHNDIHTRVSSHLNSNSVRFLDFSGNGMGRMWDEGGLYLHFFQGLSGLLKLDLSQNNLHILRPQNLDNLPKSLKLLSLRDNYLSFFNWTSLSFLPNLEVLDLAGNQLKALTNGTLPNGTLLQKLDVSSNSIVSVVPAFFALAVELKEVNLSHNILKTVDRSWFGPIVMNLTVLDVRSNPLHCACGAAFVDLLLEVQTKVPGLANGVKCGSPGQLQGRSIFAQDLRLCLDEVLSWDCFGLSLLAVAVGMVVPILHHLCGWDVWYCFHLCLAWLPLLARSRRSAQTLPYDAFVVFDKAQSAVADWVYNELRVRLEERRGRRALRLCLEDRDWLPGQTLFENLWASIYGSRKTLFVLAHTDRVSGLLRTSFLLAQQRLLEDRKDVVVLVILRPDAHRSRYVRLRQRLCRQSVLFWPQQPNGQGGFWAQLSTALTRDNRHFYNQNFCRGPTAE
Test: Cytokine production and gene expression in sorted Flt3L-DC pDCs activated with CpG ODN 1585
Format: cell-based
Protocol: FIG. 1: Guanabenz inhibits TLR3 and TLR9 activation in mouse Flt3-L DCs and human blood pDCs. A) Sorted bone marrow derived Flt3L-DCs were activated for 6 h with 10 μg/mL poly I:C LMW (TLR3 in DC1) or 1 μM ODN 1585 (TLR9 in pDCs). GBZ was added at 50 μM and inhibited IFN-β and Interleukin-6 (IL-6) production in activated cells. B) […], hTLR3, hTLR9 and hTLR7 expressed in the reporter HEK-Blue™ cells are inhibited by GBZ. TLR-expressing HEK-Blue™ cells were respectively activated with 100 ng/mL LPS, 10 μg/mL poly I:C LMW, 2.5 μM ODN 2006 or 5 μg/mL imiquimod, respectively. GBZ was added at 50 μM. TLR activity was measured indirectly through SEAP activity as absorbance at 405 nm. GBZ inhibited human TLR3, TLR7 and TLR9 signaling, but not TLR4._C) Human primary pDCs were isolated from blood and activated either with 3 μM CpG ODN 2216 (top) or with 2% of anti-DNA IgG containing serum from lupus patients (bottom). GBZ was added at 50 μM. Protein concentration of IFN-α and TNF-α secreted were measured at the indicated time points or at 16 h. Statistical significance was assigned using two tailed t-test on at least n=3 independent experiments (* p<0.05; ** p<0.005; ***p<0.0005).
BM-derived DCs were differentiated in vitro from the bone marrow of 6-8 weeks old male mice, using either FLT3 ligand or GM-CSF. Flt3L-DCs were used for experiments between days 6 and 7. Flt3L was produced using B16-Flt3L hybridoma cells. Bone marrow progenitors were plated at 1.5 10^6 cells/ml, 4 ml/well in 6 well plate, and cultivated with RPMI (GIBCO), 10% FCS (Sigma Aldrich), 100 units/ml penicillin and 100 μg/ml streptomycin (GIBCO), 50 μM b-mercaptoethanol (VWR) and Flt3L. For sorted Flt3L-DCs, cells were gently harvested at day 7 with cold PBS 2% FCS, centrifuged 1200 rpm 5 min at 4° C., counted and stained with for 30 mins at 4° C. Cells were sorted with the FACS ARIASorp. Cells were kept on ice all the time. […]
ODN 2006, 2216, 1585 and 1826, Poly I:C High and Low Molecular Weight are from InvivoGen, San Diego, Calif.; lipopolysaccharide (Escherichia coli 055:B5), clonidine, chloroquine, D-(+)-Galactosamine hydrochloride and 25-HC are from Sigma Aldrich; Guanabenz is from Tocris Bioscience. For quantitative PCR, total RNAs were extracted and purified using the RNeasy Mini Kit (Qiagen). […] Each gene transcripts were quantified by SYBR Green method with 7500Fast (Applied Biosystems). The relative amount of each transcript was determined by normalizing to internal housekeeping gene expression.
Mouse IFN-β quantification in culture supernatant was performed using the Mouse Interferon Beta ELISA kit (PBL InterferonSource); mouse IL-6, TNFα, IL-10, human TNFα and human IFNα were quantified using ELISA kit (eBioscience) respectively, according to manufacturer instructions. […]

[1] = sorted pDCs, 1 μM ODN 1585 6 h, GBZ 50 μM

Compound: NC(N)=N/N=C/c1c(Cl)cccc1Cl [GBZ, 2-(2,6-dichlorobenzylidene)-hydrazinecarboximidamide]
- transcriptional response to CpG ODN (ifna4, Tnfa, isg15, Il12 by qPCR) (pDC, data not shown): inhibited completely
- impact on cell fitness (sorted cDC1 and pDCs treated with GBZ): without any impact
- IFN-β production [1]: nearly abrogated; also recorded: inhibited
- IL-6 production [1]: nearly abrogated; also recorded: inhibited
